Data from US7915005B2, “Methods for detecting sleepiness” (Washington University in St. Louis, priority 2005, dated 2011).
“Also recorded” adds a separate entry of the source. Read-outs that look alike come from different tables or passages of the source.

Key:
wild-type flies [1] = settings: literature and unpublished data; cited from earlier work
Amy/Luc flies = experiment: Bioluminescence recording in Amy/Luc flies (amylase promoter linked to firefly luciferase); assay type: in vivo, Drosophila melanogaster; settings: caffeine 2.5 mg/ml from the morning after a full night's sleep, recorded 12 h, n=9
Method: Prior to luminescence recordings, sleep was evaluated for 2 days in female Amy/Luc flies as described above with the exception that they were maintained on 0.5% sucrose supplemented with 1 mM beetle luciferin (Promega, Madison Wis.). On day 3, flies were sleep deprived for 12 h (n=9) or served as untreated controls (n=9). Flies that were sleep deprived were removed from their 65 mm glass tubes and placed into Petri dishes with 200 μl of fresh 0.5% sucrose 1 mM beetle luciferin. Siblings that had not been sleep deprived were placed into Petri dishes with 2.5 mg/ml of caffeine added to the 0.5% sucrose 1 mM beetle luciferin. Bioluminescence was subsequently recorded in 1 min bins for 12 h under photomultiplier tubes (HC135-11MOD; Hamamatsu, Shizouka, Japan) as previously described (Abraham, U, et al., 2005. J Neurosci 25: 8620-8626). Amy/Luc flies that had never been exposed to luciferin were recorded for 12 h and served as a blank. Luminescence for SD and caffeine treated flies was subtracted from the blank and smoothed using a 3 h running average. Two independent replicates were conducted.
To determine whether amylase can provide an assessment of sleep drive in real-time, a Drosophila line in which the promoter for amylase was linked to the firefly luciferase (Amy/Luc) was evaluated (Hickey, D A, et al., 1994. Proc Natl Acad Sci USA 91: 11109-11112). […]

wild-type flies [2] = experiment: Pharmacologically induced waking in flies (Trikinetics activity monitoring); assay type: in vivo, Drosophila melanogaster; settings: drug dissolved in food
Method: (§1) Three day old female flies were placed in 65 mm glass tubes and sleep parameters were continuously evaluated throughout all experiments using the Trikinetics activity monitoring system as previously described (Shaw, P J et al., 2000. Science 287: 1834-1837; Shaw, P J et al., 2002. Nature 417: 287-291) (www.Trikinetics.com). […] Three independent replicates of 32 flies were conducted for each time point. Following SD, two thirds of the flies from each group were frozen and RNA was extracted from whole heads. The remaining one third of the flies were monitored for an additional 24 h to assay the size of the homeostatic response. Using this protocol, both gene expression and behavior can be evaluated in siblings that have been exposed to identical environments and experimental manipulations.
Pharmacological studies were conducted on female Canton-s flies. Three-day old Cs female flies were individually placed into 65 mm glass tubes in the Trikinetics activity monitoring system and evaluated for two days under LD. […] It could be determined, therefore, if the fly had ingested the drug not only by its behavior, but also by observing the dye in its abdomen. The following morning, after 14 h of drug treatment, two thirds of the flies from each group were frozen and RNA was extracted from whole heads and the amount of dye in the abdomen was evaluated. […]

Amylase mRNA (CG18640) = experiment: qPCR of Amylase (CG18640) mRNA from whole heads after drug-induced waking; assay type: in vivo, Drosophila melanogaster; settings: wild-type fly heads, immediately after 14 h of drug-induced waking; caffeine 2.5 mg/mL, methamphetamine 1 mg/ml
Method: (§2) Pharmacological studies were conducted on female Canton-s flies. Three-day old Cs female flies were individually placed into 65 mm glass tubes in the Trikinetics activity monitoring system and evaluated for two days under LD. […] All groups had similar amounts of baseline sleep. In all cases, the drug was dissolved in food along with an inert dye. It could be determined, therefore, if the fly had ingested the drug not only by its behavior, but also by observing the dye in its abdomen. The following morning, after 14 h of drug treatment, two thirds of the flies from each group were frozen and RNA was extracted from whole heads and the amount of dye in the abdomen was evaluated. The remaining one third of the flies were monitored for an additional 24 h to assay the size of the homeostatic response.
Total RNA was isolated from fly heads using Trizol (Invitrogen, Carlsbad, Calif.) following the manufacturers protocol. […] Values were expressed as a percentage of untreated animals and were evaluated using a one-way ANOVA.
(§3) Sustained periods of waking in the fly can be induce pharmacologically (Hendricks, J C et al., 2000. Neuron 25: 129-138; Shaw, P J et al., 2000. Science 287: 1834-1837). […] Therefore wild-type flies were exposed to either caffeine or methamphetamine for 14 h and evaluated the magnitude of the homeostatic response. […]

wild-type flies [3] = experiment: Homeostatic response (sleep recovered) in the 24 h after 14 h of drug-induced waking; assay type: in vivo, Drosophila melanogaster; settings: for homeostatic response / compensation for sleep lost during drug-induced waking: 14 h on drug, 24 h recovery, caffeine 2.5 mg/ml, methamphetamine 1 mg/ml
Method: as §1, §2
as §3, with “response. As above, gene expression was evaluated using qPCR and one third of the flies were allowed to recover for 24 h after drug removal and regular food was restored.” for “response.”

flies = settings: 20 μM paraquat, exposures longer than 16 h; Shaw et al. 2002; cited from earlier work
amylase activity = experiment: Amylase activity in fly homogenates after paraquat stress (Infinity Amylase reagent); assay type: in vivo, Drosophila melanogaster; settings: Cs female flies, 20 μM paraquat in 1% agar 5% sucrose for 16 h
Method: Amylase activity was evaluated following 28 h of sleep deprivation in Cs flies to match the duration of waking used in the human experiments. Female Cs flies were sleep deprived for 28 h beginning at lights out (8 pm). Whole body homogenates were extracted from 4 groups of 5 flies and compared to untreated circadian-matched controls; experiments were conducted in duplicate. Amylase activity was determined using the Infinity Amylase reagent (TR25421; Thermo Electron Corp, Louisville, Co., USA) according to the manufacturer's instructions. All samples were assayed in quadruplicate. To evaluate the effects of stress on amylase activity, Cs females were placed onto 20 μM paraquat dissolved in 1% agar 5% sucrose for 16 h and sacrificed at the same circadian time as the 28 h SD flies and their controls.

CC(N)Cc1ccccc1 (stereo not shown) [amphetamine]
waking produced by the drug (wild-type flies [1]): produce waking

Cn1c(=O)c2c(ncn2C)n(C)c1=O [caffeine]
bioluminescence (counts/min) in Amy/Luc flies (Amy/Luc flies): increased as the animals spent more time on caffeine; also recorded: progressive increase in bioluminescence | waking produced by the drug (wild-type flies [2]): produce sustained periods of waking | Amylase (CG18640) mRNA expression vs. untreated controls (Amylase mRNA (CG18640)): strongly activated; also recorded: exhibit significant increases in Amylase mRNA; also recorded: elevated | lost sleep recovered (wild-type flies [3]; 14 h of caffeine-induced waking, FIG. 5A): 30-50% | homeostatic response / compensation for sleep lost during drug-induced waking (wild-type flies [3]): exhibit a rebound of similar magnitude as that seen following manual SD

CN[C@@H](C)Cc1ccccc1 [methamphetamine]
waking produced by the drug (wild-type flies [2]): produce sustained periods of waking | Amylase (CG18640) mRNA expression vs. untreated controls (Amylase mRNA (CG18640)): not activated; also recorded: do not induce Amylase mRNA; also recorded: not after waking induced by methamphetamine | homeostatic response / compensation for sleep lost during drug-induced waking (wild-type flies [3]): do not compensate for the lost sleep; also recorded: do not induce a homeostatic response

COC(=O)C(c1ccccc1)C1CCCCN1 (stereo not shown) [methylphenidate]
waking produced by the drug (wild-type flies [1]): produce waking

NC(=O)C[S+]([O-])C(c1ccccc1)c1ccccc1 (stereo not shown) [modafinil]
waking produced by the drug (wild-type flies [1]): produce waking

C[n+]1ccc(-c2cc[n+](C)cc2)cc1 [paraquat]
lethality on paraquat (flies): flies begin to die during longer exposures | amylase activity (amylase activity): did not alter Amylase activity
